# Measurements: paper PMC9631343 (ACS Bio & Med Chem Au, 2022)
# Assay: in vitro
# Details: African green monkey
row,Structure (SMILES),CC50 [µM]
1,OC[C@H]1O[C@@H](n2cnc3c(N[C@@H]4CCOC4)ncnc32)[C@H](O)[C@@H]1O [tecadenoson],> 100
2,CC(C)C(=O)OC[C@H]1O[C@@H](n2ccc(NO)nc2=O)[C@H](O)[C@@H]1O [molnupiravir],> 100
3,CCC(CC)COC(=O)[C@H](C)N[P@](=O)(OC[C@H]1O[C@@](C#N)(c2ccc3c(N)ncnn23)[C@H](O)[C@@H]1O)Oc1ccccc1 [remdesivir],> 100
4,COc1nc(N)nc2c1ncn2[C@@H]1O[C@H](CO)[C@@H](O)[C@@H]1O [nelarabine],> 100
5,"Nc1ncnc2c1ncn2[C@@H]1O[C@H](CO)[C@@H](O)[C@@H]1O [vidarabine, Arabinosyladenine]",> 100
6,"CC(C)=CCNc1ncnc2c1ncn2[C@@H]1O[C@H](CO)[C@@H](O)[C@H]1O [riboprine, N^6-(2-Isopentenyl)adenosine]",> 100
7,CC(C)Nc1nc2cc(Cl)c(Cl)cc2n1[C@H]1O[C@@H](CO)[C@H](O)[C@@H]1O [maribavir],> 100
8,O=c1[nH]cnc2c([C@@H]3N[C@H](CO)[C@@H](O)[C@H]3O)c[nH]c12 [forodesine],> 100
